From patent US6906205B2, “Spiro and dispiro 1,2,4-trioxolane antimalarials” (Medicines for Malaria Venture MMV, priority 2002, dated 2005)
≈ marks a conversion by molar mass, not a printed value.

What was measured:
[1] = system: P. falciparum K1 strain (Thailand resistant to chloroquine); assay: semiautomated microdilution assay, [3H]-hypoxanthine incorporation, K1 strain; format: cell-based, Plasmodium falciparum; details: K1 strain, 72 h incubation
In short: (§1)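 Asynchronous stock cultures → intraerythrocytic forms; semiautomated microdilution; IC50 by logit regression.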

[2] = system: P. falciparum NF54 strain (sensitive to standard antimalarials); assay: semiautomated microdilution assay, [3H]-hypoxanthine incorporation, NF54 strain; format: cell-based, Plasmodium falciparum; details: NF54 strain, 72 h incubation
In short: as §1

[3] = system: ANKA strain of P. berghei; assay: single dose STI in vivo screen in infected mice; set-up: species or system Plasmodium berghei; details: for Activity (%) po / Activity (%) sc / Activity (%) SSVpo: percent reduction in parasitemia day 3 post-infection, mice; for Activity (%) po / Survival (days) po: single 10 mg/kg po in 3% ethanol and 7% Tween 80; for Activity (%) sc / Survival (days) sc: single 10 mg/kg sc in 3% ethanol and 7% Tween 80; for Activity (%) SSVpo: single po dose in standard suspending vehicle (SSV); for Survival (days) po / Survival (days) sc / Survival (days) SSVpo: untreated control 5.6 ± 0.3; for Survival (days) SSVpo: single po dose in SSV
In short: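 Groups of 3-5 Moro SPF or NMRI mice infected with the ANKA strain of P. berghei received a single dose of trioxolane on day one post-infection. The compound was given in 3% ethanol and 7% Tween 80 or in SSV (0.5% w/v CMC, 0.5% v/v benzyl alcohol, 0.4% v/v Tween 80, 0.9% w/v sodium chloride in water). Antimalarial activity was scored as percent reduction in parasitemia on day three and as survival time versus untreated controls. Survival to day 30 counted as cure.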

Compound	IC50 (ng/ml) K1 [1]	IC50 (ng/ml) NF54 [2]	Activity (%) po [3] [%]	Activity (%) sc [3] [%]	Activity (%) SSVpo [3] [%]	Survival (days) po [3]	Survival (days) sc [3]	Survival (days) SSVpo [3]
CCCCCCCCS(=O)(=O)N1CCC2(CC1)OOC1(O2)C2CC3CC(C2)CC1C3 (centres unmarked) [OZ115]	11 ng/mL (≈ 24.9 nM)	6.9 ng/mL (≈ 15.6 nM)	33	97	0	6.3 days	7.3 days	5.7 days
O=C(NO)[C@H]1CC[C@]2(CC1)OOC1(O2)C2CC3CC(C2)CC1C3 (some centres unmarked) [OZ116]	4.2 ng/mL (≈ 13 nM)	3.3 ng/mL (≈ 10.2 nM)	97	96	96	7.7 days	8.0 days	8.3 days
NCC1(c2ccccc2)CCC2(CC1)OOC1(O2)C2CC3CC(C2)CC1C3 (centres unmarked) [OZ117]	2.1 ng/mL (≈ 5.68 nM)	1.2 ng/mL (≈ 3.25 nM)	95	99.94	96	7.0 days	8.7 days	7.7 days
CC(=O)OC[C@H]1CC[C@]2(CC1)OOC1(O2)C2CC3CC(C2)CC1C3 (some centres unmarked) [OZ118]	1.0 ng/mL (≈ 2.97 nM)	0.24 ng/mL (≈ 0.713 nM)	99.0	99.57	98	7.0 days	8.3 days	8.0 days
CCOC(=O)C1(C(=O)OCC)COC2(CCC3(CC2)OOC2(O3)C3CC4CC(C3)CC2C4)OC1 (centres unmarked) [OZ120]	1.2 ng/mL (≈ 2.5 nM)	0.59 ng/mL (≈ 1.23 nM)	33	96	8	6.0 days	8.0 days	5.7 days
OCC1(CO)COC2(CCC3(CC2)OOC2(O3)C3CC4CC(C3)CC2C4)OC1 (centres unmarked) [OZ121]	0.96 ng/mL (≈ 2.42 nM)	0.41 ng/mL (≈ 1.03 nM)	91	99.61	98	7.3 days	7.3 days	8.0 days
O=C(O)C1(C(=O)O)COC2(CCC3(CC2)OOC2(O3)C3CC4CC(C3)CC2C4)OC1 (centres unmarked) [OZ122]	>100/>100 ng/ml	>100/>100 ng/ml	10	0	3	5.7 days	5.0 days	5.3 days
BrC[C@H]1CC[C@]2(CC1)OOC1(O2)C2CC3CC(C2)CC1C3 (some centres unmarked) [OZ123]	1.6 ng/mL (≈ 4.48 nM)	1.9 ng/mL (≈ 5.32 nM)	99.66	99.96	94	8.0 days	16 days	7.0 days
N#Cc1ccc(C2(c3ccccc3)OOC3(O2)C2CC4CC(C2)CC3C4)cc1 (centres unmarked) [OZ124]	2.1 ng/mL (≈ 5.62 nM)	1.7 ng/mL (≈ 4.55 nM)	72	86	17	6.3 days	7.0 days	5.3 days
CCOC(=O)c1ccc(C2(c3ccc(C(=O)OCC)cc3)OOC3(O2)C2CC4CC(C2)CC3C4)cc1 (centres unmarked) [OZ125]	68 ng/mL (≈ 138 nM)	> 100 ng/mL	8	0	0	5.3 days	6.0 days	5.7 days
C=C1COC2(CCC3(CC2)OOC2(O3)C3CC4CC(C3)CC2C4)OC1 (centres unmarked) [OZ128]	0.59 ng/mL (≈ 1.69 nM)	1.1 ng/mL (≈ 3.16 nM)	99.93	99.98	99.95	8.3 days	11.7 days	8.7 days
CC(C)(CO)NC(=O)[C@H]1CC[C@]2(CC1)OOC1(O2)C2CC3CC(C2)CC1C3 (some centres unmarked) [OZ129]	10/>10 ng/ml	10/>10 ng/ml	0	0	4	5.3 days	5.7 days	5.7 days
O=S(=O)(Cc1ccccc1)N1CCC2(CC1)OOC1(O2)C2CC3CC(C2)CC1C3 (centres unmarked) [OZ131]	1.7 ng/mL (≈ 4.05 nM)	4.1 ng/mL (≈ 9.77 nM)	21	90	41	5.7 days	8.0 days	6.0 days
O=C(O)c1ccccc1C(=O)N1CCC2(CC1)OOC1(O2)C2CC3CC(C2)CC1C3 (centres unmarked) [OZ132]	9.8 ng/mL (≈ 23.7 nM)	> 10 ng/mL	38	40	0	6.3 days	6.3 days	5.7 days
c1ccc2c(c1)OCCC21OOC2(O1)C1CC3CC(C1)CC2C3 (centres unmarked) [OZ134]	0.88 ng/mL (≈ 2.8 nM)	1.1 ng/mL (≈ 3.5 nM)	72	99.95	27	6.3 days	15.3 days	6.0 days
O=C(O)c1ccc(C2(c3ccc(C(=O)O)cc3)OOC3(O2)C2CC4CC(C2)CC3C4)cc1 (centres unmarked) [OZ135]	>100/>100 ng/ml	>100/>100 ng/ml	1	0	0	5.3/5.3/5.3 days	5.3/5.3/5.3 days	5.3/5.3/5.3 days
COC(=O)c1ccc(C2(c3ccccc3)OOC3(O2)C2CC4CC(C2)CC3C4)cc1 (centres unmarked) [OZ138]	10 ng/mL (≈ 24.6 nM)	19 ng/mL (≈ 46.7 nM)	0	7	5	5.7 days	6.3 days	6.3 days
O=C(OC[C@H]1CC[C@]2(CC1)OOC1(O2)C2CC3CC(C2)CC1C3)n1ccnc1 (some centres unmarked) [OZ141]	1.7 ng/mL (≈ 4.38 nM)	1.9 ng/mL (≈ 4.89 nM)	98	99.89	97	8.0 days	8.7 days	8.0 days
CC(C)(C)NC(=O)N1CCC2(CC1)OOC1(O2)C2CC3CC(C2)CC1C3 (centres unmarked) [OZ143]	0.98 ng/mL (≈ 2.69 nM)	1.8 ng/mL (≈ 4.94 nM)	48	99.85	44	6.7 days	9.7 days	6.7 days
